From patent US6584980B1, “Tobacco products with stabilized additives having vitamin E activity” (Rousseau Research, Institute, priority 1998, dated 2003)

Assays:
smoker and non-smoker = assay: Comparison of a normal filterless cigarette and a filterless cigarette with dry Vitamin E analog, smoked; assay type: in vivo
Description: A comparison was made between a normal filterless cigarette and a filterless cigarette modified to include a substantially pure, “dry” form of Vitamin E analog. For this comparison, […] of CHESTERFIELD® tobacco were removed from a CHESTERFIELD® cigarette and mixed with 0.1 grams of Vitamin E acid succinate. The mixed tobacco blend was formed into a filterless cigarette using a Rizla auto rolling box. A control cigarette, without Vitamin E analog additive, was also formed using the same Rizla auto rolling box.

non-tobacco user = assay: Comparison of a normal smokeless tobacco wad and a wad with dry Vitamin E analog, placed between cheek and gum; assay type: in vivo; conditions: 0.1 grams mixed with 10.0 grams SKOAL long cut smokeless tobacco, 1.0 gram wad between cheek and gum
Description: A third comparison was made between a normal wad of smokeless tobacco and a wad of smokeless tobacco modified to include a substantially pure, “dry” form of Vitamin E analog. For this comparison, 1.0 gram of unmodified SKOAL® long cut smokeless tobacco (i.e., snuff) was first placed in the mouth of a non-tobacco user between the cheek and gum. This unmodified smokeless tobacco produced a pleasant flavor but also a simultaneous burning sensation in the mouth, throat and esophagus which, along with an induced cough, forced the non-tobacco user to spit out the unmodified smokeless tobacco. To clear the burning sensation from mouth, the non-tobacco user washed mouth out with water. Nonetheless, the burning sensation persisted in the mouth and throat for over 5 minutes after the initial washing.
Approximately four hours later, long enough to ensure the sensitivity and the burning sensation had completely subsided, the non-tobacco user then mixed 0.1 grams of Vitamin E acid succinate obtained from the Eastman Chemical Corporation of Kingsport, Tenn. with 10.0 grams of SKOAL® long cut smokeless tobacco. A 1.0 gram wad of this Vitamin E modified smokeless tobacco was then placed in the mouth of the non-tobacco user between the cheek and gum. Like the unmodified snuff, this Vitamin E modified snuff produced a similar pleasant flavor.

non-smoker = assay: Comparison of a normal filtered cigarette and cigarettes with oily Vitamin E injected into the filter or the tobacco, puffs by a non-smoker; assay type: in vivo; conditions: for lung irritation and coughing: three puffs, non-smoker
Description: A second comparison was made between a normal filtered cigarette, a filtered cigarette with oily Vitamin E injected into the filter and oily Vitamin E injected into the length of the tobacco. In this second comparison, the control cigarette was a normal MARLBORO® cigarette. In two separate MARLBORO® cigarettes, oily Vitamin E was taken from a Vitamin E capsule with a syringe and injected into the filter of one cigarette and into the length of the tobacco of the other cigarette.
The three cigarettes where then lit with a butane lighter and three equal, alternating puffs were taken from each cigarette by a non-smoker. […] The cigarette with Vitamin E along the length of the tobacco yielded no irritation. Moreover, the flavor of the Vitamin E tobacco cigarette gave the impression of having been enhanced.

[1] = stand-alone additive, apart from an alcohol mixture; cited from earlier work
[2] = tobacco air curing, vacuum infiltration; cited from earlier work

## Cc1c(C)c2c(c(C)c1OC(=O)CCC(=O)O)CC[C@@](C)(CCC[C@H](C)CCC[C@H](C)CCCC(C)C)O2 [Vitamin E acid succinate, d-alpha tocopheryl acid succinate]
Smoker and non-smoker; 0.1 grams mixed with 7.5 grams CHESTERFIELD tobacco, filterless cigarette, smoker and non-smoker, control caused throat and lung irritation
  throat or lung irritation when smoked: no throat or lung irritation
Smoker and non-smoker; retest after several days and again after several weeks
  throat or lung irritation, retest on the same samples: the same results
non-tobacco user
  irritation (burning sensation) of mouth, throat and esophagus: completely non-irritating

## Cc1c(C)c2c(c(C)c1O)CC[C@@](C)(CCC[C@H](C)CCC[C@H](C)CCCC(C)C)O2 [Vitamin E, d-alpha tocopherol]
non-smoker; oily Vitamin E injected into the filter of a MARLBORO cigarette, control irritated lungs and induced coughing
  lung irritation and coughing: less irritating but still induced an unpleasant lung reaction and a slight cough
non-smoker; oily Vitamin E injected into the length of the tobacco of a MARLBORO cigarette
  lung irritation and coughing: no irritation
non-smoker; retest after several days, taken to indicate the Vitamin E had oxidized/metabolized
  beneficial effect on irritation, retest on the same samples: the beneficial effect was gone
[1]
  neutralizing NNN: ineffective

## Cc1c(C)c2c(c(C)c1O)CC[C@@](C)(CCC[C@H](C)CCC[C@H](C)CCCC(C)C)O2 [alpha-tocopherol]
[2]
  diminution in concentration during the curing process: 25%
